Key:
Assay in all cases: NCI cytotoxicity screen (SRB)
Assay type in all cases: cell-based, human
A549/ATCC = system: A549/ATCC
Experimental: (§1) Compounds 6, 7, 9 and 10 were tested for cytotoxic properties by the National Cancer Institute, Bethesda, Md. The anticancer drug screen utilized a panel of 60 human tumor cell lines organized into subpanels representing leukemia, melanoma, and cancers of the lung, colon, kidney, ovary and central nervous system and is described by Monks et al. (1991) Journal of the National Cancer Institute 83, 757, which is incorporated herein by reference.
(§2) Cell lines were inoculated onto microtiter plates and preincubated for 24-28 hours. 100 μL aliquots of each compound were added to the appropriate microtiter plate wells in each of five 10-fold dilutions starting from a maximum concentration of 10^-4 M in water or DMSO. Cultures were then incubated for an additional 48 hours. Cells were then fixed in situ, followed by staining with sulforhodamine B (SRB), which binds to basic amino acids of cellular macromolecules. The solubilized stain was measured spectrophotometrically to determine relative cell growth or viability in treated and untreated cells. The monoimidazole analogs of Compounds 6, 7, 9 and 10 and the formamido analog corresponding to Compounds 7 and 10 are devoid of activity against the panel of cancer cell lines in Table III.

COLO-205 = system: COLO-205
Experimental: as §1, §2

DLD-1 = system: DLD-1
Experimental: as §1, §2

DMS-114 = system: DMS-114
Experimental: as §1, §2

EKVX = system: EKVX
Experimental: as §1, §2

HCC-2998 = system: HCC-2998
Experimental: as §1, §2

HCT-116 = system: HCT-116
Experimental: as §1, §2

HCT-15 = system: HCT-15
Experimental: as §1, §2

HOP-62 = system: HOP-62
Experimental: as §1, §2

HT29 = system: HT29
Experimental: as §1, §2

K-562 = system: K-562
Experimental: as §1, §2

KM12 = system: KM12
Experimental: as §1, §2

KM20L2 = system: KM20L2
Experimental: as §1, §2

MALME-3M = system: MALME-3M
Experimental: as §1, §2

Molt-4 = system: Molt-4
Experimental: as §1, §2

NCI-H226 = system: NCI-H226
Experimental: as §1, §2

NCI-H23 = system: NCI-H23
Experimental: as §1, §2

NCI-H322M = system: NCI-H322M
Experimental: as §1, §2

NCI-H460 = system: NCI-H460
Experimental: as §1, §2

NCI-H522 = system: NCI-H522
Experimental: as §1, §2

SF-268 = system: SF-268
Experimental: as §1, §2

SF-295 = system: SF-295
Experimental: as §1, §2

SF-539 = system: SF-539
Experimental: as §1, §2

SW-620 = system: SW-620
Experimental: as §1, §2

U251 = system: U251
Experimental: as §1, §2

XF498 = system: XF498
Experimental: as §1, §2

[1] = 48 h, Non-Small Cell Lung Cancer A549/ATCC
[2] = A549/ATCC, subsequent test date
[3] = 48 h, Non-Small Cell Lung Cancer EKVX
[4] = 48 h, Non-Small Cell Lung Cancer HOP-62
[5] = 48 h, Non-Small Cell Lung Cancer NCI-H23
[6] = 48 h, Non-Small Cell Lung Cancer NCI-H322M
[7] = NCI-H322M, subsequent test date
[8] = 48 h, Non-Small Cell Lung Cancer NCI-H460
[9] = 48 h, Non-Small Cell Lung Cancer NCI-H522

Work on CN(C)CCNC(=O)c1nc(NC(=O)c2nc(NC(=O)c3ccc(N(CCCl)CCCl)cc3)cn2C)cn1C [Compound 6, N-(N',N'-dimethylaminoethyl)-1-methyl-4-{4-[4,4-bis(2-chloroethyl)aminobenzamido]-1-methylimidazole-2-carboxamido}imidazole-2-carboxamide] yielded an IC50 (A549/ATCC; [1]) of 58.8 µM, an IC50 (A549/ATCC; [2]) of 38.4 µM and an IC50 (COLO-205; 48 h, Colon Cancer COLO-205) of 5.88 µM. For the same compound, the IC50 (COLO-205; COLO-205, subsequent test date) was 7.39 µM, the IC50 (DLD-1; 48 h, Colon Cancer DLD-1) was 46.6 µM and the IC50 (DLD-1; DLD-1, subsequent test date) was 55.5 µM. The IC50 (DMS-114; 48 h, Small Cell Lung Cancer DMS-114) was 5.83 µM, the IC50 (DMS-114; DMS-114, subsequent test date) was 4.99 µM and the IC50 (EKVX; [3]) was 47.5 µM. For the same compound, the IC50 (EKVX; EKVX, subsequent test date) was 38 µM, the IC50 (HCC-2998; 48 h, Colon Cancer HCC-2998) was 33.7 µM and the IC50 (HCC-2998; HCC-2998, subsequent test date) was 8.14 µM. It also gave an IC50 (HCT-116; 48 h, Colon Cancer HCT-116) of 6.54 µM, an IC50 (HCT-116; HCT-116, subsequent test date) of 6.71 µM and an IC50 (HCT-15; 48 h, Colon Cancer HCT-15) of 40.5 µM. It also gave an IC50 (HCT-15; HCT-15, subsequent test date) of 43.2 µM, an IC50 (HOP-62; [4]) of 52.3 µM and an IC50 (HOP-62; HOP-62, subsequent test date) of 50.6 µM. For the same compound, the IC50 (HT29; 48 h, Colon Cancer HT29) was 5.9 µM, the IC50 (HT29; HT29, subsequent test date) was 27.4 µM and the IC50 (K-562; 48 h, Leukemia K-562) was 17.2 µM. The IC50 (K-562; K-562, subsequent test date) was 12.3 µM, the IC50 (KM12; 48 h, Colon Cancer KM12) was 47 µM and the IC50 (KM12; KM12, subsequent test date) was 31.6 µM. The IC50 (KM20L2; 48 h, Colon Cancer KM20L2) was 6.77 µM, the IC50 (KM20L2; KM20L2, subsequent test date) was 20.1 µM and the IC50 (MALME-3M; 48 h, Melanoma MALME-3M) was 6.14 µM. For the same compound, the IC50 (MALME-3M; MALME-3M, subsequent test date) was 64.3 µM, the IC50 (Molt-4; 48 h, Leukemia Molt-4) was 18.1 µM and the IC50 (Molt-4; Molt-4, subsequent test date) was > 100 µM. It also gave an IC50 (NCI-H226; 48 h, Non-Small Cell Lung Cancer NCI-H226) of 62.2 µM, an IC50 (NCI-H226; NCI-H226, subsequent test date) of 61.3 µM and an IC50 (NCI-H23; [5]) of 47.1 µM. It also gave an IC50 (NCI-H23; NCI-H23, subsequent test date) of 43.6 µM, an IC50 (NCI-H322M; [6]) of 40.5 µM and an IC50 (NCI-H322M; [7]) of 51.7 µM. It also gave an IC50 (NCI-H460; [8]) of 46.1 µM, an IC50 (NCI-H460; NCI-H460, subsequent test date) of 35.1 µM and an IC50 (NCI-H522; [9]) of 6.98 µM. It also gave an IC50 (NCI-H522; NCI-H522, subsequent test date) of 5.74 µM, an IC50 (SF-268; 48 h, CNS Cancer SF-268) of 50 µM and an IC50 (SF-268; SF-268, subsequent test date) of 9.21 µM. The IC50 (SF-295; 48 h, CNS Cancer SF-295) was 43.6 µM, the IC50 (SF-295; SF-295, subsequent test date) was 33.2 µM and the IC50 (SF-539; 48 h, CNS Cancer SF-539) was 6.97 µM. The IC50 (SF-539; SF-539, subsequent test date) was 57.3 µM, the IC50 (SW-620; 48 h, Colon Cancer SW-620) was 9.95 µM and the IC50 (SW-620; SW-620, subsequent test date) was 12 µM. For the same compound, the IC50 (U251; 48 h, CNS Cancer U251) was 6.73 µM, the IC50 (U251; U251, subsequent test date) was 5.8 µM and the IC50 (XF498; XF498, subsequent test date) was 25200 nM.

For CN(C)CCNC(=O)c1nc(NC(=O)c2nc(NC(=O)c3nc(NC(=O)c4ccc(N(CCCl)CCCl)cc4)cn3C)cn2C)cn1C [Compound 7, N-(N',N'-dimethylaminoethyl)-1-methyl-4-{1-methyl-4-[4-(4,4-bis-(2-chloroethyl)aminobenzamido)-1-methylimidazole-2-carboxamido]imidazole-2-carboxamido}imidazole-2-carboxamide], the IC50 (A549/ATCC; [1]) was 5.64 µM, the IC50 (A549/ATCC; [2]) was 4.12 µM and the IC50 (COLO-205; 48 h, Colon Cancer COLO-205) was 0.97 µM. It also gave an IC50 (COLO-205; COLO-205, subsequent test date) of 0.56 µM, an IC50 (DLD-1; 48 h, Colon Cancer DLD-1) of 4.34 µM and an IC50 (DMS-114; DMS-114, subsequent test date) of 0.54 µM. For the same compound, the IC50 (EKVX; [3]) was 0.88 µM, the IC50 (EKVX; EKVX, subsequent test date) was 1.7 µM and the IC50 (HCC-2998; 48 h, Colon Cancer HCC-2998) was 0.68 µM. For the same compound, the IC50 (HCC-2998; HCC-2998, subsequent test date) was 0.89 µM, the IC50 (HCT-15; 48 h, Colon Cancer HCT-15) was > 10 µM and the IC50 (HCT-15; HCT-15, subsequent test date) was > 100 µM. For the same compound, the IC50 (HOP-62; [4]) was 1.17 µM, the IC50 (HT29; 48 h, Colon Cancer HT29) was 2.3 µM and the IC50 (HT29; HT29, subsequent test date) was 1.97 µM. The IC50 (K-562; 48 h, Leukemia K-562) was 0.58 µM, the IC50 (KM12; 48 h, Colon Cancer KM12) was 0.96 µM and the IC50 (KM12; KM12, subsequent test date) was 0.75 µM. It also gave an IC50 (KM20L2; 48 h, Colon Cancer KM20L2) of 7.92 µM, an IC50 (MALME-3M; 48 h, Melanoma MALME-3M) of 2.63 µM and an IC50 (MALME-3M; MALME-3M, subsequent test date) of 4.34 µM. It also gave an IC50 (Molt-4; 48 h, Leukemia Molt-4) of 0.98 µM, an IC50 (NCI-H226; NCI-H226, subsequent test date) of 5.54 µM and an IC50 (NCI-H23; [5]) of 0.96 µM. It also gave an IC50 (NCI-H23; NCI-H23, subsequent test date) of 2.35 µM, an IC50 (NCI-H322M; [6]) of 2.39 µM and an IC50 (NCI-H322M; [7]) of 1.97 µM. It also gave an IC50 (NCI-H460; [8]) of 5.67 µM, an IC50 (NCI-H460; NCI-H460, subsequent test date) of 4.12 µM and an IC50 (NCI-H522; [9]) of 4.41 µM. The IC50 (NCI-H522; NCI-H522, subsequent test date) was 0.42 µM, the IC50 (SF-268; 48 h, CNS Cancer SF-268) was 0.77 µM and the IC50 (SF-295; 48 h, CNS Cancer SF-295) was 4.1 µM. For the same compound, the IC50 (SF-539; SF-539, subsequent test date) was 0.59 µM, the IC50 (SW-620; 48 h, Colon Cancer SW-620) was 0.79 µM and the IC50 (SW-620; SW-620, subsequent test date) was 0.63 µM. It also gave an IC50 (U251; U251, subsequent test date) of 0.5 µM, an IC50 (XF498; 48 h, CNS Cancer XF498) of 620 nM and an IC50 (XF498; XF498, subsequent test date) of 650 nM.
